Assay results from patent publication US9498483B2, “2,3,5-trisubstituted thiophene compounds and uses thereof” (priority 2010, dated 2016).

How the values were obtained:
[1] = test system: HCV replicon I389luc-ubi-neo/NS3-3′/ET in ET (Huh-lucubineo-ET) cells; assay: Replicon assay (Biological Example 2), luciferase readout; assay type: cell-based; settings: Hepatitis C virus
Procedure, shortened: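 EC50 values come from Hill fits of % inhibition of replicon-driven firefly luciferase, relative to no-compound wells. Compounds were serially diluted (10 points, 3-fold, 0.1 nM–50 μM final, 0.5% DMSO) onto ET replicon cells and read after 48 h.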

HCV polymerase = target: T1, HCV polymerase (Hepatitis C virus genotype 1b, UniProt Q9WMX2); assay: Polymerase assay of Biological Example 1 (IC50 values of Table 3); assay type: biochemical; settings: IC50 values of Table 3, polymerase assay of Biological Example 1; read-out: NS5B-enzyme3
T1 construct: (His)6 (C); made in house; host or cells: XL-1 cells (E. coli, by own knowledge)

[2] = ET cells, luciferase activity 48 hours after compound

SMILES	IC50 [1, 2]	IC50 (HCV polymerase)	IC50 ([1]; between 100 nM and 5.0 uM)
O=C(O)c1sc(-c2ccc(Cl)cc2)cc1N1C(=O)CN(S(=O)(=O)c2ccc(N3CCCCC3)cc2)C[C@H]1C1CCCCC1 [Compound 233, 5-(4-Chloro-phenyl)-3-[(R)-2-cyclohexyl-6-oxo-4-(4-piperidin-1-yl-benzenesulfonyl)-piperazin-1-yl]-thiophene-2-carboxylic acid]	≤ 100 nM	2 nM	–
C[C@@H]1CCCN1c1ccc(S(=O)(=O)N2CC(=O)N(c3cc(-c4ccc(Cl)cc4)sc3C(=O)O)[C@H](C3CCCCC3)C2)cc1 [Compound 234, 5-(4-Chloro-phenyl)-3-{(R)-2-cyclohexyl-4-[4-((R)-2-methyl-pyrrolidin-1-yl)-benzenesulfonyl]-6-oxo-piperazin-1-yl}-thiophene-2-carboxylic acid]	≤ 100 nM	1 nM	–
CC(C)(C)C#Cc1cc(N2C(=O)COC[C@H]2C2CCCCC2)c(C(=O)O)s1 [Compound 236, 3-((R)-3-Cyclohexyl-5-oxo-morpholin-4-yl)-5-(3,3-dimethyl-but-1-ynyl)-thiophene-2-carboxylic acid]	≤ 100 nM	3 nM	–
C[C@H]1[C@@H](C2CCCCC2)N(c2cc(C#CC(C)(C)C)sc2C(=O)O)C(=O)N1C [Compound 237, 3-((4S,5R)-5-Cyclohexyl-3,4-dimethyl-2-oxo-imidazolidin-1-yl)-5-(3,3-dimethyl-but-1-ynyl)-thiophene-2-carboxylic acid]	–	42 nM	100 to 5000 nM
CC(C)(C)C#Cc1cc(N2C(=O)CN(S(=O)(=O)c3ccc(C#N)cc3)C[C@H]2C2CCCCC2)c(C(=O)O)s1 [Compound 238, 3-[(R)-4-(4-Cyano-benzenesulfonyl)-2-cyclohexyl-6-oxo-piperazin-1-yl]-5-(3,3-dimethyl-but-1-ynyl)-thiophene-2-carboxylic acid]	≤ 100 nM	2 nM	–
CC(C)(C)C#Cc1cc(N2C(=O)CN(S(=O)(=O)c3cccc(F)c3)C[C@H]2C2CCCCC2)c(C(=O)O)s1 [Compound 239, 3-[(R)-2-Cyclohexyl-4-(3-fluoro-benzenesulfonyl)-6-oxo-piperazin-1-yl]-5-(3,3-dimethyl-but-1-ynyl)-thiophene-2-carboxylic acid]	≤ 100 nM	2 nM	–
CC(C)(C)C#Cc1cc(N2C(=O)CN(S(=O)(=O)c3cn[nH]c3)C[C@H]2C2CCCCC2)c(C(=O)O)s1 [Compound 241, 3-[(R)-2-Cyclohexyl-6-oxo-4-(1H-pyrazole-4-sulfonyl)-piperazin-1-yl]-5-(3,3-dimethyl-but-1-ynyl)-thiophene-2-carboxylic acid]	≤ 100 nM	1 nM	–
CC(C)(C)C#Cc1cc(N2C(=O)CN(S(=O)(=O)c3cccc(Cl)c3)C[C@H]2C2CCCCC2)c(C(=O)O)s1 [Compound 242, 3-[(R)-4-(3-Chlorobenzenesulfonyl)-2-cyclohexyl-6-oxo-piperazin-1-yl]-5-(3,3-dimethyl-but-1-ynyl)-thiophene-2-carboxylic acid]	–	5 nM	100 to 5000 nM
CC(C)(C)C#Cc1cc(N2C(=O)CN(S(=O)(=O)c3ccc(F)cc3)C[C@H]2C2CCCCC2)c(C(=O)O)s1 [Compound 243, 3-[(R)-2-Cyclohexyl-4-(4-fluoro-benzenesulfonyl)-6-oxo-piperazin-1-yl]-5-(3,3-dimethyl-but-1-ynyl)-thiophene-2-carboxylic acid]	≤ 100 nM	2 nM	–
Cc1nc(C)c(S(=O)(=O)N2CC(=O)N(c3cc(C#CC(C)(C)C)sc3C(=O)O)[C@H](C3CCCCC3)C2)s1 [Compound 244, 3-[(R)-2-Cyclohexyl-4-(2,4-dimethyl-thiazole-5-sulfonyl)-6-oxo-piperazin-1-yl]-5-(3,3-dimethyl-but-1-ynyl)-thiophene-2-carboxylic acid]	≤ 100 nM	2 nM	–
CC(C)(C)C#Cc1cc(N2C(=O)CN(S(=O)(=O)C3CC3)C[C@H]2C2CCCCC2)c(C(=O)O)s1 [Compound 245, 3-((R)-2-Cyclohexyl-4-cyclopropanesulfonyl-6-oxo-piperazin-1-yl)-5-(3,3-dimethyl-but-1-ynyl)-thiophene-2-carboxylic acid]	–	5 nM	100 to 5000 nM
COc1ccc(S(=O)(=O)N2CC(=O)N(c3cc(C#CC(C)(C)C)sc3C(=O)O)[C@H](C3CCCCC3)C2)cc1F [Compound 246, 3-[(R)-2-Cyclohexyl-4-(3-fluoro-4-methoxy-benzenesulfonyl)-6-oxo-piperazin-1-yl]-5-(3,3-dimethyl-but-1-ynyl)-thiophene-2-carboxylic acid]	≤ 100 nM	4 nM	–
CC(C)(C)C#Cc1cc(N2C(=O)CN(S(=O)(=O)c3c[nH]cn3)C[C@H]2C2CCCCC2)c(C(=O)O)s1 [Compound 247, 3-[(R)-2-Cyclohexyl-4-(1H-imidazole-4-sulfonyl)-6-oxo-piperazin-1-yl]-5-(3,3-dimethyl-but-1-ynyl)-thiophene-2-carboxylic acid]	≤ 100 nM	2 nM	–
Cc1nc(S(=O)(=O)N2CC(=O)N(c3cc(C#CC(C)(C)C)sc3C(=O)O)[C@H](C3CCCCC3)C2)cn1C [Compound 248, 3-[(R)-2-Cyclohexyl-4-(1,2-dimethyl-1H-imidazole-4-sulfonyl)-6-oxopiperazin-1-yl]-5-(3,3-dimethyl-but-1-ynyl)-thiophene-2-carboxylic acid]	≤ 100 nM	2 nM	–
CC(C)(C)C#Cc1cc(N2C(=O)CN(S(=O)(=O)c3ccccc3OC(F)(F)F)C[C@H]2C2CCCCC2)c(C(=O)O)s1 [Compound 249, 3-[(R)-2-Cyclohexyl-6-oxo-4-(2-trifluoromethoxy-benzenesulfonyl)-piperazin-1-yl]-5-(3,3-dimethyl-but-1-ynyl)-thiophene-2-carboxylic acid]	–	19 nM	100 to 5000 nM
CC(C)(C)C#Cc1cc(N2C(=O)CN(S(=O)(=O)c3ccc(C(F)(F)F)cc3)C[C@H]2C2CCCCC2)c(C(=O)O)s1 [Compound 250, 3-[(R)-2-Cyclohexyl-6-oxo-4-(4-trifluoromethyl-benzenesulfonyl)-piperazin-1-yl]-5-(3,3-dimethyl-but-1-ynyl)-thiophene-2-carboxylic acid]	≤ 100 nM	5.5 nM	–
CC(C)(C)C#Cc1cc(N2C(=O)CN(S(=O)(=O)c3c(F)cccc3F)C[C@H]2C2CCCCC2)c(C(=O)O)s1 [Compound 251, 3-[(R)-2-Cyclohexyl-4-(2,6-difluoro-benzenesulfonyl)-6-oxo-piperazin-1-yl]-5-(3,3-dimethyl-but-1-ynyl)-thiophene-2-carboxylic acid]	≤ 100 nM	4 nM	–
CC(C)(C)C#Cc1cc(N2C(=O)CN(S(=O)(=O)c3ccc4oc(=O)[nH]c4c3)C[C@H]2C2CCCCC2)c(C(=O)O)s1 [Compound 252, 3-[(R)-2-Cyclohexyl-6-oxo-4-(2-oxo-2,3-dihydro-benzooxazole-5-sulfonyl)-piperazin-1-yl]-5-(3,3-dimethyl-but-1-ynyl)-thiophene-2-carboxylic acid]	–	2 nM	100 to 5000 nM
CNC(=O)c1ccc(S(=O)(=O)N2CC(=O)N(c3cc(C#CC(C)(C)C)sc3C(=O)O)[C@H](C3CCCCC3)C2)cc1 [Compound 253, 3-[(R)-2-Cyclohexyl-4-(4-methylcarbamoyl-benzenesulfonyl)-6-oxo-piperazin-1-yl]-5-(3,3-dimethyl-but-1-ynyl)-thiophene-2-carboxylic acid]	≤ 100 nM	2 nM	–
Cn1nccc1S(=O)(=O)N1CC(=O)N(c2cc(C#CC(C)(C)C)sc2C(=O)O)[C@H](C2CCCCC2)C1 [Compound 254, 3-[(R)-2-Cyclohexyl-4-(2-methyl-2H-pyrazole-3-sulfonyl)-6-oxo-piperazin-1-yl]-5-(3,3-dimethyl-but-1-ynyl)-thiophene-2-carboxylic acid]	–	15 nM	100 to 5000 nM
Cc1ncc(S(=O)(=O)N2CC(=O)N(c3cc(C#CC(C)(C)C)sc3C(=O)O)[C@H](C3CCCCC3)C2)n1C [Compound 255, 3-[(R)-2-Cyclohexyl-4-(2,3-dimethyl-3H-imidazole-4-sulfonyl)-6-oxo-piperazin-1-yl]-5-(3,3-dimethyl-but-1-ynyl)-thiophene-2-carboxylic acid]	–	5 nM	100 to 5000 nM
CCc1ccc(S(=O)(=O)N2CC(=O)N(c3cc(C#CC(C)(C)C)sc3C(=O)O)[C@H](C3CCCCC3)C2)cc1 [Compound 256, 3-[(R)-2-Cyclohexyl-4-(4-ethyl-benzenesulfonyl)-6-oxo-piperazin-1-yl]-5-(3,3-dimethyl-but-1-ynyl)-thiophene-2-carboxylic acid]	≤ 100 nM	1 nM	–
COc1cccc(S(=O)(=O)N2CC(=O)N(c3cc(C#CC(C)(C)C)sc3C(=O)O)[C@H](C3CCCCC3)C2)c1 [Compound 257, 3-[(R)-2-Cyclohexyl-4-(3-methoxy-benzenesulfonyl)-6-oxo-piperazin-1-yl]-5-(3,3-dimethyl-but-1-ynyl)-thiophene-2-carboxylic acid]	≤ 100 nM	2 nM	–
COc1ccccc1S(=O)(=O)N1CC(=O)N(c2cc(C#CC(C)(C)C)sc2C(=O)O)[C@H](C2CCCCC2)C1 [Compound 258, 3-[(R)-2-Cyclohexyl-4-(2-methoxy-benzenesulfonyl)-6-oxo-piperazin-1-yl]-5-(3,3-dimethyl-but-1-ynyl)-thiophene-2-carboxylic acid]	≤ 100 nM	7 nM	–
CC(C)(C)C#Cc1cc(N2C(=O)CN(S(=O)(=O)c3cccc(C#N)c3)C[C@H]2C2CCCCC2)c(C(=O)O)s1 [Compound 259, 3-[(R)-4-(3-Cyano-benzenesulfonyl)-2-cyclohexyl-6-oxo-piperazin-1-yl]-5-(3,3-dimethyl-but-1-ynyl)-thiophene-2-carboxylic acid]	–	7 nM	100 to 5000 nM
